For 90 compounds, EC50 results are on record in PubChem BioAssay AID467 (The Scripps Research Institute Molecular Screening Center, 2006).

Activity calls are given as the source filed them. The rule behind the calls is not given here.

This test relates to parental cell line counter screen, S1P1 agonist assay readout. Briefly: signal in parental cells, counter-screen for S1P1 agonist project (AID 467).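 Note: agonist potency measured against forskolin stimulation plus an EC20 level of SEW2871.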 For orientation: Counterscreens check selectivity or assay interference.
In the case of `CC1(C)CC(=O)C(C=Nc2ccc3[nH]ncc3c2)=C(O)C1`, the EC50 was > 30 µM (inactive).

As to `Cc1cc(C(=O)COC(=O)c2csc3c2CCCC3)c(C)n1C`, the EC50 is > 95.1 µM (inactive).

As to `Cc1cc(N2CCN(c3nc4ccccc4s3)CC2)n2ncnc2n1`, the EC50 was > 95.1 µM (inactive).

Consider `COc1cc(C(=O)N2CCN(S(=O)(=O)c3ccc(C)cc3)CC2)ccc1OCc1c(C)noc1C`, for which the EC50 was > 95.1 µM (inactive).

As to `Clc1ccc(OCc2nnc(SCc3nc4ccccc4[nH]3)n2Cc2ccco2)cc1`, the EC50 was 36.4 µM (inactive).

For the compound `Cc1nn(Cc2ccc(Cl)c(Cl)c2)c(C)c1NC(=O)c1cc(-c2ccco2)on1`, the EC50 is 13.2 µM (inactive).

Turning to `O=S(=O)(C/C(=C/CO)S(=O)(=O)c1ccccc1)c1ccccc1`, the EC50 was 2.21 µM.

On to `COC(=O)c1c(C)n(-c2ccc(OC)cc2)c2ccc(O)cc12`, for which the EC50 is 20.1 µM (inactive).

In the case of `Cc1nn(Cc2ccc(Cl)c(Cl)c2)c(C)c1NC(=O)c1cc(CC(C)C)on1`, the EC50 is 23.8 µM (inactive).

In the case of `COc1ccc(C(=O)C(CN2CCOCC2)c2ccccc2)cc1F` (stereo not given), the EC50 is 8.06 µM.

For the compound `CCOC(=O)Nc1ccc2c(c1)N(C(=O)CCN(C)C)c1ccccc1S2`, the EC50 was > 10 µM (inactive).

Regarding `Cc1nc(C)c(C(=O)Nc2ccc(Oc3ccccc3)cc2)o1`, the EC50 is > 30 µM (inactive).

In the case of `CN(C)c1oc(-c2ccc(OCc3ccccc3)cc2)nc1C#N`, the EC50 is > 95.1 µM (inactive).

Turning to `O=C(Oc1cccc(C(=O)N2CCOCC2)c1)c1ccc(Br)cc1`, the EC50 is > 95.1 µM (inactive).

Take `COc1ccccc1N/C(N)=N/c1nc(CSc2ccc(C)cc2)cc(=O)[nH]1`: the EC50 was > 95.1 µM (inactive).

Turning to `COC(=O)c1ccc(C(c2c(N)n(CC(C)C)c(=O)[nH]c2=O)N2CCN(c3ccccc3)CC2)cc1` (stereo not given), the EC50 was > 95.1 µM (inactive).

For `CN(C)c1ccnc2sc3c(=O)n(Cc4ccccc4)cnc3c12`, the EC50 was > 95.1 µM (inactive).

`O=S(=O)(CCSc1ccccn1)c1nc2ccccc2s1`: the EC50 is 4.71 µM.

As for `COC(=O)c1ccc2c(=O)n(C3CCCCC3)c(SCC#N)nc2c1`, the EC50 is > 95.1 µM (inactive).

For the compound `Cc1ccc(O)c(NC(=O)CCC2CCCCC2)c1`, the EC50 is 50.1 µM (inactive).

Regarding `Cc1ccsc1C(=O)OCC(=O)c1cc(C)n(CC2CCCO2)c1C` (stereo not given), the EC50 is > 95.1 µM (inactive).

Consider `Cc1ccc(C(=O)c2cncc(Br)c2)cc1`, for which the EC50 was > 95.1 µM (inactive).

For the compound `Cc1cc2nc(-c3ccc(NC(=O)C(C)C)cc3)oc2cc1C`, the EC50 is > 95.1 µM (inactive).

Consider `CCCc1ccc(Oc2cn[nH]c2-c2ccc(O)cc2O)cc1`, for which the EC50 was > 10 µM (inactive).

For `Cc1cc(/C=N/n2cnnc2)c(C)n1-c1ccc(OCc2ccc(F)cc2)cc1`, the EC50 was 6.71 µM.

In the case of `O=C(Nc1ccc(Oc2ccccc2)cc1)c1cnc2n(c1=O)CCS2`, the EC50 was > 95.1 µM (inactive).

Turning to `Cc1cc(C(=O)CSc2nnc(-c3cccnc3)n2-c2ccccc2F)c(C)n1C`, the EC50 was > 95.1 µM (inactive).

Consider `CCOc1nc(-c2ccccc2)ccc1-c1noc(-c2ccco2)n1`, for which the EC50 is > 95.1 µM (inactive).

For the compound `CCC(=NCCOc1ccc(Cl)cc1)c1c(O)n(C)c(=O)n(C)c1=O`, the EC50 is 18.9 µM (inactive).

Consider `CCOc1ccc(S(=O)(=O)n2cnc3cc(C)c(C)cc32)cc1`, for which the EC50 was > 30 µM (inactive).

`CCOc1ccc(-c2nc(-c3ccncc3)no2)cc1OCC`: the EC50 is > 95.1 µM (inactive).

With `Cc1cc(C(=O)N2CCN(C(c3ccccc3)c3ccccc3)CC2)no1`, the EC50 is > 95.1 µM (inactive).

For `O=C(NCc1ccccc1)N1CCN(c2ccc(Cl)c(Cl)c2)CC1`, the EC50 is > 95.1 µM (inactive).

Regarding `N#Cc1nc(-c2ccc(OCc3ccccc3)cc2)oc1NCc1cccnc1`, the EC50 is > 95.1 µM (inactive).

Regarding `COCCN(C(=O)c1ccccc1)c1nnc(-c2cccnc2)s1`, the EC50 is > 95.1 µM (inactive).

As to `COc1ccc(CNc2cc(C)nc3ncnn23)c(OC)c1`, the EC50 is > 95.1 µM (inactive).

As to `Cc1ccccc1CS(=O)(=O)c1nnc([C@H](CC(C)C)NC(=O)OC(C)(C)C)o1`, the EC50 is 2.89 µM.

`COc1ccccc1Oc1ccc2c(c1)C(=O)N(c1cccc(O)c1)C2=O`: the EC50 was > 30 µM (inactive).

Consider `Cc1cc(/C=c2/sc3nc4ccccc4n3c2=O)c(C)n1-c1ccccn1`, for which the EC50 was > 95.1 µM (inactive).

Consider `CCCCOc1ncnc2c1[nH]c1ccccc12`, for which the EC50 is 37.9 µM (inactive).

For the compound `COc1cc2c(cc1OC)C(C)N(C(=O)c1cc3ccccc3o1)CC2` (stereo not given), the EC50 was > 95.1 µM (inactive).

Turning to `O=c1oc2cc(Br)ccc2n1CSC1=NCCS1`, the EC50 is > 10 µM (inactive).

`CCOc1ccc(-c2nc(-c3ccccc3C)no2)cc1`: the EC50 was > 95.1 µM (inactive).

Consider `C=CCN1C(=Nc2cccnc2)SCC1(O)c1ccc(C)cc1` (stereo not given), for which the EC50 is 31.9 µM (inactive).

On to `CCCC(=O)Nc1ccc2oc(-c3ccc(OC)c(Br)c3)nc2c1`, for which the EC50 was > 95.1 µM (inactive).

As for `COc1ccc(-c2nc(-c3ccccc3OC)no2)cc1OC`, the EC50 is > 95.1 µM (inactive).

In the case of `O=C(Nc1nc(-c2ccc3c(c2)OCO3)cs1)c1ccncc1`, the EC50 is 28.9 µM (inactive).

As to `Oc1ccc(-c2nc(-c3ccc(O)c(O)c3)cs2)cc1`, the half-maximal effective concentration (EC50) was 6.35 µM.

With `O=S1(=O)C=C(Sc2nc3ccccc3s2)c2ccccc21`, the EC50 is 1.26 µM.

For `CC1Cc2cc(-c3csc(NC(=O)Cc4cccs4)n3)ccc2N1S(C)(=O)=O` (stereo not given), the EC50 was 23.8 µM (inactive).

For `CCc1ccc2oc(-c3cc(N)cc(C)c3O)nc2c1`, the EC50 is > 95.1 µM (inactive).

For `O=C(CSc1nnc(-c2cc3ccccc3cc2O)n1Cc1ccco1)c1ccc(F)cc1`, the EC50 was > 10 µM (inactive).

In the case of `Cc1nn(-c2nc3ccccc3s2)c(N)c1-c1ccccc1`, the EC50 is > 95.1 µM (inactive).

Regarding `O=S(=O)(NCc1ccncc1)c1ccc(Br)s1`, the EC50 is > 95.1 µM (inactive).

Turning to `O=C(CSc1nnc(Cn2nnc3ccccc32)o1)N(Cc1ccc(F)cc1)c1ccccc1`, the EC50 was 30.6 µM (inactive).

Turning to `O=C(C1CCC1)N1CCc2cc(S(=O)(=O)Nc3ccc4c(c3)OCCO4)ccc21`, the EC50 was > 95.1 µM (inactive).

Turning to `Cc1cc(NC(=O)c2oc3ccccc3c2C)ccc1-n1cnnn1`, the EC50 was > 30 µM (inactive).

For `O=C(Nc1c(F)cc(F)cc1Br)c1cc(-c2ccc(O)cc2)on1`, the EC50 was 53.6 µM (inactive).

On to `COc1ccc(NC(=O)c2cc(-c3cccs3)on2)cc1OC`, for which the EC50 is > 95.1 µM (inactive).

Regarding `O=C(Nc1nc2c(s1)CCCC2)c1cc2n(n1)C(C(F)(F)F)CC(C1CC1)N2` (stereo not given), the EC50 was > 95.1 µM (inactive).

For the compound `O=C(CSc1nnc(Cc2csc(Nc3cccc(Cl)c3)n2)o1)N1CCc2ccccc21`, the EC50 was > 95.1 µM (inactive).

As to `NC(=O)c1ccc(OCC(F)(F)C(F)(F)C(F)(F)C(F)(F)C(F)(F)C(F)F)cc1`, the EC50 was > 95.1 µM (inactive).

For `Cc1cc(C(=O)CC#N)c(C)n1-c1ccc(OC(F)F)cc1`, the EC50 is > 95.1 µM (inactive).

In the case of `CCNc1nc2c(c(=O)n(C)c(=O)n2C)n1Cc1ccc(Cl)cc1`, the EC50 was > 95.1 µM (inactive).

With `O=C(Nc1ccc(-c2noc(CCc3ccccc3)n2)cc1)c1cccnc1`, the EC50 is > 30 µM (inactive).

In the case of `Cc1ccc(C(C)C)c(OCc2nc(-c3nonc3N)no2)c1`, the EC50 was > 30 µM (inactive).

For the compound `Cc1ccc(OCc2nc(-c3ccccc3)no2)c(C)c1`, the EC50 is > 95.1 µM (inactive).

For the compound `Cc1cccc(NC(=O)Nc2ccc(C#N)cc2)n1`, the EC50 is 43 µM (inactive).

Consider `Fc1ccccc1COc1ccc(/C=N/n2cnnc2)cc1`, for which the EC50 was > 95.1 µM (inactive).

Take `c1ccc2c(c1)oc1c(NCc3ccc4c(c3)OCO4)ncnc12`: the EC50 was 38.9 µM (inactive).

On to `CN=C(NC#N)SCC(=O)c1ccc(Cl)cc1Cl`, for which the EC50 was > 30 µM (inactive).

With `COc1cccc(NC(=O)Nc2nnc(N3CCCCC3C)s2)c1` (stereo not given), the EC50 is 40 µM (inactive).

In the case of `COC(=O)c1ccc(OCC(O)Cn2nnc3ccccc32)cc1` (stereo not given), the EC50 was > 95.1 µM (inactive).

On to `c1ccc2c(c1)CCN(c1ncnc3c1[nH]c1ccccc13)C2`, for which the EC50 is 5.88 µM.

For the compound `OC1(c2cccc(C(F)(F)F)c2)CCN(c2ncnc3c2[nH]c2ccc(F)cc23)CC1`, the EC50 was > 3 µM (inactive).

Turning to `Clc1ccc(NCn2cncn2)nc1`, the EC50 is > 95.1 µM (inactive).

For the compound `O=C1C2CCCN2C(c2cccnc2)N1c1cccc(Cl)c1` (stereo not given), the EC50 is > 95.1 µM (inactive).

Regarding `Cc1ccc(S(=O)(=O)Nc2ccc3ncccc3c2)cc1`, the EC50 is > 30 µM (inactive).

Regarding `COc1ccc(-c2nc(-c3cccc(C(F)(F)F)c3)no2)cc1OC`, the EC50 is > 95.1 µM (inactive).

For `CCOC(=O)c1sc2nc(NC(=O)C3CCCCC3)sc2c1C`, the EC50 is > 95.1 µM (inactive).

Consider `O=C(c1ccco1)N1CCN(c2ncnc3c2[nH]c2ccc(Br)cc23)CC1`, for which the EC50 was > 10 µM (inactive).

Regarding `CCCc1cc2c(=O)c(-c3ccccn3)coc2cc1OC`, the EC50 is > 95.1 µM (inactive).

For `c1ccc(N2CCN(Cc3ccnc4ccccc34)CC2)cc1`, the EC50 was 47.9 µM (inactive).

On to `CCOC(=O)c1oc2cc(O)c(CC)cc2c(=O)c1-c1ccc2c(c1)OCCO2`, for which the EC50 is > 30 µM (inactive).

Consider `Cn1c(-c2c(N)n(C3CCCC3)c3nc4ccccc4nc23)nc2ccccc21`, for which the EC50 is 1.96 µM.

In the case of `O=C(C1CCCN1S(=O)(=O)c1cccc2cccnc12)N1CCN(c2ccccc2)CC1` (stereo not given), the EC50 is > 95.1 µM (inactive).

In the case of `CCN(CC)c1ccc(-n2c(C)c(C(C)=O)c(C(C)=O)c2C)cc1`, the EC50 was > 95.1 µM (inactive).

In the case of `Cc1onc(-c2ccccc2Cl)c1C(=O)Oc1cc(N)n(S(=O)(=O)c2ccc(F)cc2)n1`, the EC50 is 9.2 µM.

Regarding `CCOC(=O)N1CCN(C(=O)C2CCN(c3ncnc4c3sc3cccc(F)c34)CC2)CC1`, the EC50 was 24.2 µM (inactive).

For `Cc1ccc(NC(=O)c2cc(-c3ccco3)on2)cc1C`, the EC50 is > 95.1 µM (inactive).

For orientation: EC50 means the concentration needed to bring the measured effect to its halfway point.
